Like-named read-outs stand apart in the source and are kept apart here.
Legend:
[1] = test system: quinone reductase (QR) in H9 cells; test: Elevation of quinone reductase (QR) in H9 cells; type: cell-based, human; conditions: for fold induction at 30 µM / fold induction at 60 µM / fold induction at 120 µM: Homo sapiens, read-out: Quinone reductase, treated to control value
Experimental: Five ml of medium was added to T-25 flasks and DMSO containing tests compounds were added to a final concentration of 0.1%. Control medium contained 0.1% DMSO. After the drugs were added, 5×10^6 cells in 5 ml of medium was added to each T-25 flask. The cells were grown at 37° C. in a humidified incubator supplemented with 5% CO2 until harvested (N=3 flasks/group). At the indicated times, cells were isolated by centrifugation (500×g×10 min) and were washed three times by adding 10 ml of ice-cold DPBS, mixing, and centrifuging in a refrigerated centrifuge (500×g×10 min) to isolate the cell pellets. The cells were then lysed by the addition of 400 μl of ice-cold DPBS containing 0.5% Triton X-100 and vortexing. Supernatants were then isolated by centrifuging the lysates (5000×g×20 min). Samples were kept on ice or refrigerated until the reagents for QR or GSH spectrophotometric assays were added to the aliquoted microtiter plates. QR levels were determined by aliquoting 10 μl/well of supernatant in a 96-well plate and measuring the activity by the assay described by Prochaska and Santamaria (20) except that the final NADP^+ concentration was 200 μM (21). Samples were assayed in quadruplicate, and dicoumarol inhibitable-rates (which generally represented less than 5% of the total rate) were also measured. Spectrophotometric blanks contained 10 μl of DPBS with 0.5% Triton X-100. For the GSH assay, 300 μl of sample was placed in a centricon-10microconcentrator and centrifuged (5000×g×45 min) until enough ultrafiltrate could be collected. 50 μl/well of sample in quadruplicate was placed in a 96 well "half-area" plate after which 20 μl of 1 mM Ellman's reagent dissolved in DPBS was added. The yellow color (22) developed within 5 min and was scanned with a uvmax microtiter scanner (Palo Alto, Calif.) at 405 nm. Spectrophotometric blanks contained 50 μl DPBS with 0.5% Triton X-100 and 20 μl of 1 mM Ellman's reagent in DPBS. The optical densities of the specimens were calibrated to a GSH standard curve. Protein contents were determined in 3 ml cuvettes by the Bradford method (23). The protein content in the ultrafiltrates employed for GSH determinations were negligible (<0.01 mg/ml).
We confirmed that the induction of QR in microtiter wells mirrored our results in T-25 flasks by using the method of Prochaska and Santamaria (20). Medium (100 μl) containing 0.1% final concentration DMSO was added to all wells except columns designated to contain the highest concentration of drug or spectrophotometric blanks in duplicate sets of U-bottomed microtiter plates. 200 μl of media containing drug (final DMSO concentration=0.1%) was added to the empty column of wells and then diluted in 2-fold serial dilutions across. After the serial dilutions were performed, 100 μl of media containing 1×10^6 cells/ml was added to each well, and the plates were placed in a 37° C. incubator for 48 h. One set of plates was assayed as described (21) for QR activity, the other was assayed for cell number by the method for Alley et al. (24).

[2] = test system: H9 cells; test: Cytotoxicity in H9 cells by trypan blue exclusion; type: cell-based, human; conditions: concentrations up to 120 μM, H9 cells
Experimental: The effects for test compounds were assessed by means of both IFA and p24 release. In general, the following protocol was followed: H9 cells were infected with HIV-1 at 1000 50% infective doses of viruses/10^6 cells. Virus was allowed to adsorb for 1 h, after which unadsorbed virus was removed by centrifugation. The cells were resuspended and washed twice with PBS (without Ca^+2 or Mg^+2 salts) and centrifuged to collect the cell pellet (150×g×10 min). Cells were suspended in fresh medium and added at a final cell density of 500,000 cells/ml in a 96-well plate with media containing 0.1% DMSO and various concentrations of test compounds. The cells were re-fed freshly prepared media containing 0.1% DMSO±test compounds on day four (for preinduction experiments, cells were exposed to inducers on days -2, 0, and +4 days relative to infection). After seven days, cells were examined for cytoxicity by trypan blue exclusion, the degree of infection with HIV-1 by IFA, and the supernatants were assayed for p24 levels according to the manufacturer's directions. The IFA procedure can be summarized as follows: The cells were washed twice in PBS and were placed in 5 mm 12-well slides. After allowing the slides to dry and fixing the cells with acetone for 5 min, 10 μl of HIV-1 positive serum in 40 μl PBS was added to each well and allowed to incubate at 37° C. for 30 min. After incubation, the slides were washed twice with PBS and incubated at 37° C. for 30 min with 2.5 μl goat anti-human IgG-fluorescein isothiocyanate conjugate in 50 μl PBS containing 0.01% Evans Blue per well. The slides were then washed twice with PBS, dried, and mounted with 50% glycerol in PBS, and scored for the percentage of fluorescent cells by fluorescent microscopy.

[3] = biological target: T1, HIV-1 reverse transcriptase (RT) (Human immunodeficiency virus type 1 group M subtype B, UniProt P04585); test: Inhibition of recombinant HIV-1 reverse transcriptase (TTP incorporation); type: biochemical; conditions: for Ki: Segal transformation of Dixon plots
T1 construct: Recombinant HIV-1 reverse transcriptase (RT) was obtained from Worthington (Freehold, N.J.); purchased Worthington (Freehold, N.J.)
Experimental: Reverse transcriptase assays were performed as described by Flexner, et al. (25) using recombinant HIV-1 RT as the source of enzyme. Dilutions and assay were carried out in 96-well "half-area" plates. The enzyme with various concentrations of test compounds were dissolved in DPBS containing 1% w/v BSA and diluted in 50 μl volumes; 10 μl aliquots in triplicate were transferred to another plate for the enzyme assay. The reactions were initiated by the addition of 25 μl/well of buffer containing 50 mM Tris.cndot.Cl (pH 8.0), 75 mM KCl, 1 mM dithiothreitol, 2 mM MgCl2, 5 μg/ml poly(A), 2.5 μg/ml oligo (dT), 10 μCi/ml ^32 p TTP with or without unlabeled TTP. […] TTP incorporation was measured by spotting 20 μl of the reaction cocktail onto DE81 paper, washing the paper with 4×5 min washes of 300 mM NaCl and 30 mM sodium citrate (pH 7.0), drying the paper, and counting the paper by liquid scintillation counting. The assays performed with oltipraz and 1,2-dithiole-3-thione contained 0.29% final concentration DMSO. This concentration of DMSO had no effect on RT activity.

[4] = Dixon plots, listed as oltipraz

Compound: Cc1c(-c2cnccn2)ssc1=S [compound 11, 4-methyl-5-(2-pyrazinyl)-1,2-dithiole-3-thione]
- Quinone Reductase Specific Activity ([1]; 24 h, 30 μM): 62.0 ± 2.0 nmol/min/mg
- Quinone Reductase Specific Activity ([1]; 24 h, 60 μM): 83.5 ± 1.7 nmol/min/mg
- Quinone Reductase Specific Activity ([1]; 24 h, 120 μM): 109 ± 28 nmol/min/mg
- Quinone Reductase Specific Activity ([1]; 48 h, 30 μM): 52.7 ± 2.9 nmol/min/mg
- Quinone Reductase Specific Activity ([1]; 48 h, 60 μM): 68.0 ± 2.9 nmol/min/mg
- Quinone Reductase Specific Activity ([1]; 48 h, 120 μM): 79.7 ± 0.28 nmol/min/mg
- Quinone Reductase Specific Activity ([1]; 72 h, 30 μM): 40.4 ± 4.7 nmol/min/mg
- Quinone Reductase Specific Activity ([1]; 72 h, 60 μM): 47.3 ± 4.6 nmol/min/mg
- Quinone Reductase Specific Activity ([1]; 72 h, 120 μM): 75.0 ± 8.6 nmol/min/mg
- fold induction at 30 µM ([1]; H9, 24 h): 1.1
- fold induction at 60 µM ([1]; H9, 24 h): 1.48
- fold induction at 120 µM ([1]; H9, 24 h): 1.93
- fold induction at 30 µM ([1]; H9, 48 h): 1.52
- fold induction at 60 µM ([1]; H9, 48 h): 1.96
- fold induction at 120 µM ([1]; H9, 48 h): 2.28
- fold induction at 30 µM ([1]; H9, 72 h): 0.86
- fold induction at 60 µM ([1]; H9, 72 h): 1.01
- fold induction at 120 µM ([1]; H9, 72 h): 1.6
- elevation of QR ([1]; dose- and time-dependent, H9 cells): least effective inducer of QR and GSH
- cytotoxicity [2]: non-cytotoxic
- type of inhibition with respect to TTP [3, 4]: non-competitive inhibitor
- type of inhibition with respect to poly(A):oligo(dT) [3, 4]: mixed inhibitor
- Ki ([3]; N=2 experiments, read-out: Ki with respect to TTP): 183 ± 50 µM
- Ki ([3]; N=3 experiments, read-out: Ki with respect to poly(A):oligo(dT)): 189 ± 29 µM
- synergy as inhibitors of reverse transcriptase ([3]; moderate to high levels of inhibition): synergistically with AZT 5'-triphosphate
- inhibition of recombinant HIV-1 reverse transcriptase ([3]; poly(A):oligo(dT) and TTP as substrates): inhibitor

Source: US5691338A, “1,2-dithiole-3 thiones for the treatment of reverse transcriptase-dependent viral infections” (priority 1995, dated 1997)
